# Measurements published in patent publication US4666902A, “Tetrahydropyridazinone derivatives, processes for their preparation and their use” (Cassella Aktiengesellschaft, priority 1983, dated 1987).
# System: thrombocyte aggregation induced by thrombin
# Assay: Inhibition of thrombocyte aggregation in vitro (Born), thrombin
# Format: cell-based
# Conditions: induced by 0.2-0.4 N.I.H. units/ml (thrombin)
# Protocol: (§1) The values of tables 3 to 5 showing the inhibition of the thrombocytic aggregation were determined in vitro according to the Born method (J. Physiol. 162 67 P (1962)) using arachidonic acid, thrombin or adenosine diphosphate as aggregation agent.
# Inhibition of thrombocyte aggregation in vitro
# (according to BORN) induced by 0.2-0.4 N.I.H. units/ml
row,Compound,IC50 [µM]
1,COc1ccc(C2=NNC(=O)CC2CO)cc1 (centres unmarked) [drawing 98],2.5
2,O=C1CC(CO)C(c2ccc(Cl)cc2)=NN1 (centres unmarked) [drawing 99],6
3,CC(=O)Nc1ccc(C2=NNC(=O)CC2CO)cc1 (centres unmarked) [drawing 100],0.7
4,COc1ccc(C2=NNC(=O)CC2CO)cc1OC (centres unmarked) [drawing 101],2
5,COc1ccc(C2=NNC(=O)CC2COC(=O)COc2ccc(Cl)cc2)cc1OC (centres unmarked) [drawing 102],> 100

# System: experimental thrombosis, venous
# Assay: Venous thrombotic protection, experimental thrombosis in vivo (Harbauer)
# Conditions: 0.3 mg/kg i.p.
# Protocol: (§2) The values of the arterial thrombotic protection given in table 1 were determined in rats according to the method of Meng and Seuter (Naunyn-Schmiedeberg's Arch. Pharmacol. 301, 115 (1977)), those of the venous thrombotic protection were determined in rabbits according to the Harbauer method ("Versuche zur Entwicklung eines standardisierten venosen Thrombosemodells am Kaninchen" ("Tests for developing a standardized venous thrombotic model in rabbits"), 17th Angiologic Symposium, Kitzbuhel (1982)).
# (§3) Influence on the experimental thrombosis in vivo
row,Compound,Thrombotic Protection % venous (rabbit) [%]
1,CC(=O)Nc1ccc(C2=NNC(=O)CC2CO)cc1 (centres unmarked) [drawing 46],60

# Same assay, conditions: 1 mg/kg i.p.
row,Compound,Thrombotic Protection % venous (rabbit) [%]
1,CC(=O)Nc1ccc(C2=NNC(=O)CC2CO)cc1 (centres unmarked) [drawing 46],78

# Same assay, conditions: 3 mg/kg i.p.
row,Compound,Thrombotic Protection % venous (rabbit) [%]
1,O=C1CC(CO)C(c2ccc(OCCn3ccnc3)cc2)=NN1 (centres unmarked) [drawing 47],57

# Same assay, conditions: 10 mg/kg i.p.
row,Compound,Thrombotic Protection % venous (rabbit) [%]
1,O=C1CC(CO)C(c2ccc(Cl)cc2)=NN1 (centres unmarked) [drawing 44],57
2,Cc1nnc(COc2ccc(C3=NNC(=O)CC3CO)cc2)o1 (centres unmarked) [drawing 45],50
3,O=C1CC(CO)C(c2ccc(OCCn3ccnc3)cc2)=NN1 (centres unmarked) [drawing 47],86
4,O=C1CC(CO)C(c2ccc(N3CCCC3=O)cc2)=NN1 (centres unmarked) [drawing 48],83

# System: experimental thrombosis, arterial
# Assay: Arterial thrombotic protection, experimental thrombosis in vivo (Meng and Seuter)
# Conditions: 0.3 mg/kg i.p.
# Protocol: as §2, §3
row,Compound,Thrombotic Protection % arterial (rat) [%]
1,CC(=O)Nc1ccc(C2=NNC(=O)CC2CO)cc1 (centres unmarked) [drawing 46],30

# Same assay, conditions: 1 mg/kg i.p.
row,Compound,Thrombotic Protection % arterial (rat) [%]
1,CC(=O)Nc1ccc(C2=NNC(=O)CC2CO)cc1 (centres unmarked) [drawing 46],80
2,O=C1CC(CO)C(c2ccc[nH]2)=NN1 (centres unmarked) [drawing 50],42

# System: action of arachidonic acid
# Assay: Influence on the action of arachidonic acid in vivo under anesthesia (Lefort and Vargaftig)
# Set-up: species or system guinea pig; key: -: no action; (+): weak; +: medium; ++: strong; +++: very strong
# Conditions: 0.1-1 mg/kg i.v.
# Protocol: The values of Table 2 showing the influence on the action of arachidonic acid were determined in guinea pigs under anesthesia using the Lefort and Vargaftig method (Br. J. Pharmac. 63, 35 (1978)).
# Influence on the action of arachidonic acid (arachidonic acid
# […] i.v.) in vivo in guinea pigs under anesthesia
Compound,PGI2 Effect: Lowering of blood pressure,TXA2 Effect: Bronchospasm,TXA2 Effect: Thrombocytopenia
CC(=O)Nc1ccc(C2=NNC(=O)CC2CO)cc1 (centres unmarked) [drawing 65],++,++,++

# Same assay, conditions: 0.3-3 mg/kg i.v.
Compound,PGI2 Effect: Lowering of blood pressure,TXA2 Effect: Bronchospasm,TXA2 Effect: Thrombocytopenia
O=C1CC(CO)C(c2ccc(N3CCCC3=O)cc2)=NN1 (centres unmarked) [drawing 62],+,+,++
COc1ccc(C2=NNC(=O)CC2CO)cc1OC (centres unmarked) [drawing 69],+++,++,++

# Same assay, conditions: 1-10 mg/kg i.v.
Compound,PGI2 Effect: Lowering of blood pressure,TXA2 Effect: Bronchospasm,TXA2 Effect: Thrombocytopenia
Cc1cc(COc2ccc(C3=NNC(=O)CC3CO)cc2)[nH]c(=O)c1 (centres unmarked),-,(+),(+)
O=C1CC(CO)C(c2ccco2)=NN1 (centres unmarked),-,(+),(+)
O=C1CC(CO)C(c2ccccc2)=NN1 (centres unmarked) [drawing 53],(+),(+),-
Cc1ccc(C2=NNC(=O)CC2CO)cc1 (centres unmarked) [drawing 54],(+),(+),(+)
COc1ccc(C2=NNC(=O)CC2CO)cc1 (centres unmarked) [drawing 55],++,(+),-
O=C1CC(CO)C(c2ccc(Cl)cc2)=NN1 (centres unmarked) [drawing 56],(+),(+),(+)
O=C1CC(CO)C(c2cccc([N+](=O)[O-])c2)=NN1 (centres unmarked) [drawing 57],(+ ),++,+
Cc1nnc(COc2ccc(C3=NNC(=O)CC3CO)cc2)o1 (centres unmarked) [drawing 58],+,++,++
COc1ccc(C2=NNC(=O)CC2COC(=O)c2cccnc2)cc1OC (centres unmarked) [drawing 59],-,(+),(+)
CC(=O)Nc1ccc(C2=NN(C)C(=O)CC2CO)cc1 (centres unmarked) [drawing 61],(+),(+),(+)
O=C1CC(CO)C(c2ccc[nH]2)=NN1 (centres unmarked) [drawing 63],(+),++,+++
O=C1CC(CO)C(c2ccc(OCCn3ccnc3)cc2)=NN1 (centres unmarked) [drawing 66],(+),+,++
O=C1CC(CO)C(c2c[nH]c3ccccc23)=NN1 (centres unmarked) [drawing 70],(+),+,+++
COc1ccc(C2=NNC(=O)CC2COC(=O)COc2ccc(Cl)cc2)cc1OC (centres unmarked) [drawing 71],+,(+),-
O=C1CC(CO)C(c2ccc(OCc3cccnc3)cc2)=NN1 (centres unmarked) [drawing 73],-,+,+

# Same assay, conditions: 3-10 mg/kg i.v.
Compound,PGI2 Effect: Lowering of blood pressure,TXA2 Effect: Bronchospasm,TXA2 Effect: Thrombocytopenia
O=C1CC(CO)C(c2cccs2)=NN1 (centres unmarked) [drawing 68],(+),(+),(+)

# System: thrombocyte aggregation induced by ADP
# Assay: Inhibition of thrombocyte aggregation in vitro (Born), ADP
# Format: cell-based
# Conditions: induced by 10 μM ADP
# Protocol: as §1
# Inhibition of thrombocyte aggregation in vitro (according to
# BORN) induced by 10 μM ADP
row,Compound,IC50 [µM]
1,O=C1CC(CO)C(c2ccccc2)=NN1 (centres unmarked) [drawing 105],> 100
2,Cc1ccc(C2=NNC(=O)CC2CO)cc1 (centres unmarked) [drawing 106],150
3,COc1ccc(C2=NNC(=O)CC2CO)cc1 (centres unmarked) [drawing 107],50
4,O=C1CC(CO)C(c2ccc(Cl)cc2)=NN1 (centres unmarked) [drawing 108],70
5,CC(=O)Nc1ccc(C2=NNC(=O)CC2CO)cc1 (centres unmarked) [drawing 109],10
6,COc1ccc(C2=NNC(=O)CC2CO)cc1OC (centres unmarked) [drawing 110],9
7,Cc1nnc(COc2ccc(C3=NNC(=O)CC3CO)cc2)o1 (centres unmarked) [drawing 111],20
8,O=C1CC(CO)C(c2ccc(OCCn3ccnc3)cc2)=NN1 (centres unmarked) [drawing 112],150
9,O=C1CC(CO)C(c2ccc(N3CCCC3=O)cc2)=NN1 (centres unmarked) [drawing 113],20
10,O=C1CC(CO)C(c2ccc(OCc3cccnc3)cc2)=NN1 (centres unmarked) [drawing 114],36
11,N#Cc1ccc(C2=NNC(=O)CC2CO)cc1 (centres unmarked) [drawing 115],20

# System: thrombocyte aggregation induced by arachidonic acid
# Assay: Inhibition of thrombocyte aggregation in vitro (Born), arachidonic acid
# Format: cell-based
# Conditions: induced by 0.36 mM of arachidonic acid
# Protocol: as §1
# Inhibition of thrombocyte aggregation in vitro (according to BORN)
# induced by 0.36 mM of arachidonic acid
row,Compound,IC50 [µM]
1,Cc1cc(COc2ccc(C3=NN(C)C(=O)CC3CO)cc2)[nH]c(=O)c1 (centres unmarked),15
2,COc1ccc(C2=NN(C)C(=O)CC2CO)cc1OC (centres unmarked),40
3,COc1cc(C2=NNC(=O)CC2CO)cc(OC)c1OC (centres unmarked),6
4,O=C1CC(CO)C(c2ccccc2)=NN1 (centres unmarked) [drawing 75],5
5,O=C1CC(CO)C(c2cccc([N+](=O)[O-])c2)=NN1 (centres unmarked) [drawing 78],1.5
6,Cc1nnc(COc2ccc(C3=NNC(=O)CC3CO)cc2)o1 (centres unmarked) [drawing 79],1
7,O=C1CC(CO)C(c2ccc(OCCn3ccnc3)cc2)=NN1 (centres unmarked) [drawing 80],2
8,N#Cc1ccc(C2=NNC(=O)CC2CO)cc1 (centres unmarked) [drawing 81],0.3
9,CC(=O)Nc1ccc(C2=NN(C)C(=O)CC2CO)cc1 (centres unmarked) [drawing 82],> 100
10,COc1ccc(C2=NNC(=O)CC2COC(=O)COc2ccc(Cl)cc2)cc1OC (centres unmarked) [drawing 83],4
11,O=C1CC(CO)C(c2ccc(OCc3cccnc3)cc2)=NN1 (centres unmarked) [drawing 85],0.45
12,O=C1CC(CO)C(c2cccs2)=NN1 (centres unmarked) [drawing 86],50
13,O=C1CC(CO)C(c2ccc(N3CCCC3=O)cc2)=NN1 (centres unmarked) [drawing 87],0.4
14,COc1ccc(C2=NNC(=O)CC2CO)cc1OC (centres unmarked) [drawing 88],0.6
15,O=C1CC(CO)C(c2ccc(Cl)cc2)=NN1 (centres unmarked) [drawing 90],0.9
16,CC(=O)Nc1ccc(C2=NNC(=O)CC2CO)cc1 (centres unmarked) [drawing 91],0.2
17,O=C1CC(CO)C(c2c[nH]c3ccccc23)=NN1 (centres unmarked) [drawing 93],0.55
18,COc1ccc(C2=NNC(=O)CC2COC(=O)c2cccnc2)cc1OC (centres unmarked) [drawing 94],30
